Measurements published in patent publication US20260125382A1, “COMPOUNDS FOR INHIBITING OR DEGRADING CDK2 AND/OR CDK9 AND MEDICINAL USE THEREOF” (KOREA RESEARCH INSTITUTE OF CHEMICAL TECHNOLOGY, priority 2022, published 2026).

How the values were obtained:
CDK2 = target: T1, CDK2 (Homo sapiens, UniProt P24941); assay: CDK protein degradation activity (Western blotting), CDK2; format: cell-based; conditions: MDA-MB-231 cells, 16 hours, Western blot
T1 construct: endogenous in cells; host or cells: MDA-MB-231
Outline: (§1)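 MDA-MB-231 cells were treated with compound at final concentrations of 100 nM, 1 μM and 10 μM, or DMSO vehicle, for 16 h. Lysates were resolved by SDS-PAGE and immunoblotted for CDK2, CDK9 and tubulin, with band intensities quantified densitometrically.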

CDK9 = target: T2, CDK9 (Homo sapiens, UniProt P50750); assay: CDK protein degradation activity (Western blotting), CDK9; format: cell-based; conditions: MDA-MB-231 cells, 16 hours, Western blot
T2 construct: endogenous in cells; host or cells: MDA-MB-231
T2 sequence (P50750 whole entry): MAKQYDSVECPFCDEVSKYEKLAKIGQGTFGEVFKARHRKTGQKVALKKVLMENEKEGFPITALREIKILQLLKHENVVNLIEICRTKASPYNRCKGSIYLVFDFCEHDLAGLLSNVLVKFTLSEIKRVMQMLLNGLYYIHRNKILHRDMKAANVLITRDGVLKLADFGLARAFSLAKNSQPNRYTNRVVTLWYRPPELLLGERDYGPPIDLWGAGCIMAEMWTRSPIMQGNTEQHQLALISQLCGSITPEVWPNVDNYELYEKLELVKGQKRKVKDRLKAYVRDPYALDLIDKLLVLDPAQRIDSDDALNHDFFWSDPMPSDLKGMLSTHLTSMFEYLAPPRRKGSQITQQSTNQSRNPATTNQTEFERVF
Outline: as §1

Row | SMILES | Enzyme degradation CDK2 (% remaining) @ 0.1 μM (CDK2) | Enzyme degradation CDK2 (% remaining) @ 1 μM (CDK2) | Enzyme degradation CDK2 (% remaining) @ 10 μM (CDK2) | Enzyme degradation CDK9 (% remaining) @ 0.1 μM (CDK9) | Enzyme degradation CDK9 (% remaining) @ 1 μM (CDK9) | Enzyme degradation CDK9 (% remaining) @ 10 μM (CDK9)
1 | N#Cc1cccc(C(=O)N[C@H]2C[C@@H](n3cnc4c(Nc5ccc(N6CCN(CC7CCN(C(=O)C8CCN(c9ccc%10c(c9)C(=O)N(C9CCC(=O)NC9=O)C%10=O)CC8)CC7)CC6)cc5)ncnc43)C2)n1 (stereo partly drawn) [Compound 455, 6-cyano-N-((1s,3s)-3-(6-((4-(4-((1-(1-(2-(2,6-dioxopiperidin-3-yl)-1,3-dioxoisoindolin-5-yl)piperidin-4-carbonyl)piperidin-4-yl)methyl)piperazin-1-yl)phenyl)amino)-9H-purin-9-yl)cyclobutyl)picolinamide] | 30% | 20% | 20% | 0/0/0% | 0/0/0% | 0/0/0%
2 | O=C1CC[C@@H](c2cccc(OCC(=O)N3CCN(CCCN4CCN(c5ccc(Nc6ncnc7c6ncn7C6CC(NC(=O)Cc7ccccc7)C6)cc5)CC4)CC3)c2)C(=O)N1 (stereo partly drawn) [Compound 237, N-((1s,3s)-3-(6-((4-(4-(3-(4-(2-(3-(2,6-dioxopiperidin-3-yl)phenoxy)acetyl)piperazin-1-yl)propyl)piperazin-1-yl)phenyl)amino)-9H-purin-9-yl)cyclobutyl)-2-phenylacetamide] | 10% | 0% | 0% | 20% | 0% | 0%
3 | Cc1cccc(C(=O)NC2CC(n3cnc4c(NCc5cccc(N6CCN(CC7CCN(C(=O)CNc8ccc9c(c8)C(=O)N([C@H]8CCC(=O)NC8=O)C9=O)CC7)CC6)c5)ncnc43)C2)n1 (stereo partly drawn) [Compound 135, N-((1s,3s)-3-(6-((3-(4-((1-((2-(2,6-dioxopiperidin-3-yl)-1,3-dioxoisoindolin-5-yl)glycyl)piperidin-4-yl)methyl)piperazin-1-yl)benzyl)amino)-9H-purin-9-yl)cyclobutyl)-6-methylpicolinamide] | 70% | 60% | 40% | 0/0/0% | 0/0/0% | 0/0/0%
4 | O=C1CC[C@H](N2C(=O)c3cccc(N4CC(CN5CCC6(CC5)CC(N5CCN(c7ccc(Nc8ncnc9c8ncn9[C@H]8C[C@@H](NC(=O)Cc9ccccc9)C8)cc7)CC5)C6)C4)c3C2=O)C(=O)N1 [Compound 279, N-((1s,3s)-3-(6-((4-(4-(7-((1-(2-(2,6-dioxopiperidin-3-yl)-1,3-dioxoisoindolin-4-yl)azetidin-3-yl)methyl)-7-azaspiro[3.5]nonan-2-yl)piperazin-1-yl)phenyl)amino)-9H-purin-9-yl)cyclobutyl)-2-phenylacetamide] | 50% | 40% | 40% | 40% | 10% | 10%
5 | O=C1CC[C@H](N2C(=O)c3ccc(NCC(=O)N4CCC(OCCN5CCN(c6ccc(Nc7ncnc8c7ncn8[C@H]7C[C@@H](NC(=O)Cc8ccccc8)C7)cc6)CC5)CC4)cc3C2=O)C(=O)N1 [Compound 248, N-((1s,3s)-3-(6-((4-(4-(2-((1-((2-(2,6-dioxopiperidin-3-yl)-1,3-dioxoisoindolin-5-yl)glycyl)piperidin-4-yl)oxy)ethyl)piperazin-1-yl)phenyl)amino)-9H-purin-9-yl)cyclobutyl)-2-phenylacetamide] | 50/50/50% | 50/50/50% | 50/50/50% | 50% | 20% | 0%
6 | Cc1cccc(C(=O)NC2CC(n3cnc4c(Nc5ccc(N6CCN(CC7CCN(c8cccc9c8C(=O)N([C@H]8CCC(=O)NC8=O)C9=O)CC7)CC6)cc5)ncnc43)C2)n1 (stereo partly drawn) [Compound 89, N-((1s,3s)-3-(6-((4-(4-((1-(2-(2,6-dioxopiperidin-3-yl)-1,3-dioxoisoindolin-4-yl)piperidin-4-yl)methyl)piperazin-1-yl)phenyl)amino)-9H-purin-9-yl)cyclobutyl)-6-methylpicolinamide] | 70% | 50% | 90% | 10% | 0% | 0%
7 | Cc1cccc(C(=O)N[C@H]2C[C@@H](n3cnc4c(NCCC5CCN(CC6CCN(C(=O)COc7ccc8c(c7)C(=O)N([C@H]7CCC(=O)NC7=O)C8=O)CC6)CC5)ncnc43)C2)n1 [Compound 124, N-((1s,3s)-3-(6-((2-(1-((1-(2-((2-(2,6-dioxopiperidin-3-yl)-1,3-dioxoisoindolin-5-yl)oxy)acetyl)piperidin-4-yl)methyl)piperidin-4-yl)ethyl)amino)-9H-purin-9-yl)cyclobutyl)-6-methylpicolinamide] | 40% | 20% | 10% | 0/0/0% | 0/0/0% | 0/0/0%
8 | O=C1CC[C@H](N2C(=O)c3ccc(N4CC(C(=O)N5CCN(C6CN(c7ccc(Nc8ncnc9c8ncn9[C@H]8C[C@@H](NC(=O)Cc9ccccc9)C8)cc7)C6)CC5)C4)cc3C2=O)C(=O)N1 [Compound 373, N-((1s,3s)-3-(6-((4-(3-(4-(1-(2-(2,6-dioxopiperidin-3-yl)-1,3-dioxoisoindolin-5-yl)azetidin-3-carbonyl)piperazin-1-yl)azetidin-1-yl)phenyl)amino)-9H-purin-9-yl)cyclobutyl)-2-phenylacetamide] | 30/30/30% | 30/30/30% | 30/30/30% | 40% | 20% | 20%
9 | Cc1cccc(C(=O)NC2CC(n3cnc4c(NCc5ccc(OCC6CCN(C(=O)COc7cccc8c7C(=O)N([C@H]7CCC(=O)NC7=O)C8=O)CC6)cc5)ncnc43)C2)n1 (stereo partly drawn) [Compound 107, N-((1s,3s)-3-(6-((4-((1-(2-((2-(2,6-dioxopiperidin-3-yl)-1,3-dioxoisoindolin-4-yl)oxy)acetyl)piperidin-4-yl)methoxy)benzyl)amino)-9H-purin-9-yl)cyclobutyl)-6-methylpicolinamide] | 60% | 50% | 100% | 90% | 20% | 0%
10 | Cc1cccc(C(=O)NC2CC(n3cnc4c(Nc5ccc(N6CCN(CCC7CCN(c8ccc9c(c8)C(=O)N([C@H]8CCC(=O)NC8=O)C9=O)CC7)CC6)cc5)ncnc43)C2)n1 (stereo partly drawn) [Compound 380, N-((1s,3s)-3-(6-((4-(4-(2-(1-(2-(2,6-dioxopiperidin-3-yl)-1,3-dioxoisoindolin-5-yl)piperidin-4-yl)ethyl)piperazin-1-yl)phenyl)amino)-9H-purin-9-yl)cyclobutyl)-6-methylpicolinamide] | 40% | 40% | 30% | 0/0/0% | 0/0/0% | 0/0/0%
11 | Cc1cccc(C(=O)N[C@H]2C[C@@H](n3cnc4c(NCc5ccc(N6CCN(C(=O)CNc7ccc8c(c7)C(=O)N([C@H]7CCC(=O)NC7=O)C8=O)CC6)cc5)ncnc43)C2)n1 [Compound 149, N-((1s,3s)-3-(6-((4-(4-((2-(2,6-dioxopiperidin-3-yl)-1,3-dioxoisoindolin-5-yl)glycyl)piperazin-1-yl)benzyl)amino)-9H-purin-9-yl)cyclobutyl)-6-methylpicolinamide] | 10% | 20% | 20% | 0/0/0% | 0/0/0% | 0/0/0%
12 | O=C1CC[C@H](N2C(=O)c3ccc(N4CCC(CCN5CCN(c6ccc(Nc7ncnc8c7ncn8[C@H]7C[C@@H](NC(=O)c8c(Cl)cccc8Cl)C7)cc6)CC5)CC4)cc3C2=O)C(=O)N1 [Compound 405, 2,6-dichloro-N-((1s,3s)-3-(6-((4-(4-(2-(1-(2-(2,6-dioxopiperidin-3-yl)-1,3-dioxoisoindolin-5-yl)piperidin-4-yl)ethyl)piperazin-1-yl)phenyl)amino)-9H-purin-9-yl)cyclobutyl)benzamide] | 50/50/50% | 50/50/50% | 50/50/50% | 0/0/0% | 0/0/0% | 0/0/0%
13 | O=C1CC[C@H](N2C(=O)c3ccc(N4CCC(C(=O)N5CCN(C6CCN(c7ccc(Nc8ncnc9c8ncn9C8CC(NC(=O)Cc9ccccc9)C8)cc7)CC6)CC5)CC4)cc3C2=O)C(=O)N1 (stereo partly drawn) [Compound 365, N-((1s,3s)-3-(6-((4-(4-(4-(1-(2-(2,6-dioxopiperidin-3-yl)-1,3-dioxoisoindolin-5-yl)piperidin-4-carbonyl)piperazin-1-yl)piperidin-1-yl)phenyl)amino)-9H-purin-9-yl)cyclobutyl)-2-phenylacetamide] | 60/60/60% | 60/60/60% | 60/60/60% | 30% | 10% | 10%
